Data published in ChEMBL document CHEMBL4765397, “Design, synthesis and bioevaluation of novel substituted triazines as potential dual PI3K/mTOR inhibitors” (Eur J Med Chem, 2020).
Blank lines part the entries; values can stand above or below the compound they belong to. Activity calls are given as the source filed them. No cut-off for these calls is given here.

Columns and labels:
[1] = molecular target: Serine/threonine-protein kinase mTOR (Homo sapiens, UniProt P42345); assay: Inhibition of mTOR (unknown origin) using ULight-4E-BP1 as substrate measured after 45 mins in presence of ATP by LANCE Ultra assay
HCT-116 [2] = assay: Antiproliferative activity against human HCT116 cells assessed as reduction in cell viability after 48 hrs by MTT assay; format: functional, cell-based; conditions: HCT-116, 48 h
[3] = molecular target: T1, Phosphatidylinositol 4,5-bisphosphate 3-kinase catalytic subunit delta isoform (Homo sapiens, UniProt O00329); assay: Inhibition of PI3Kdelta (unknown origin) using PIP2 as substrate measured after 1 hr in presence of ATP by ADP-Glo reagent based assay
T1 sequence (O00329 whole entry): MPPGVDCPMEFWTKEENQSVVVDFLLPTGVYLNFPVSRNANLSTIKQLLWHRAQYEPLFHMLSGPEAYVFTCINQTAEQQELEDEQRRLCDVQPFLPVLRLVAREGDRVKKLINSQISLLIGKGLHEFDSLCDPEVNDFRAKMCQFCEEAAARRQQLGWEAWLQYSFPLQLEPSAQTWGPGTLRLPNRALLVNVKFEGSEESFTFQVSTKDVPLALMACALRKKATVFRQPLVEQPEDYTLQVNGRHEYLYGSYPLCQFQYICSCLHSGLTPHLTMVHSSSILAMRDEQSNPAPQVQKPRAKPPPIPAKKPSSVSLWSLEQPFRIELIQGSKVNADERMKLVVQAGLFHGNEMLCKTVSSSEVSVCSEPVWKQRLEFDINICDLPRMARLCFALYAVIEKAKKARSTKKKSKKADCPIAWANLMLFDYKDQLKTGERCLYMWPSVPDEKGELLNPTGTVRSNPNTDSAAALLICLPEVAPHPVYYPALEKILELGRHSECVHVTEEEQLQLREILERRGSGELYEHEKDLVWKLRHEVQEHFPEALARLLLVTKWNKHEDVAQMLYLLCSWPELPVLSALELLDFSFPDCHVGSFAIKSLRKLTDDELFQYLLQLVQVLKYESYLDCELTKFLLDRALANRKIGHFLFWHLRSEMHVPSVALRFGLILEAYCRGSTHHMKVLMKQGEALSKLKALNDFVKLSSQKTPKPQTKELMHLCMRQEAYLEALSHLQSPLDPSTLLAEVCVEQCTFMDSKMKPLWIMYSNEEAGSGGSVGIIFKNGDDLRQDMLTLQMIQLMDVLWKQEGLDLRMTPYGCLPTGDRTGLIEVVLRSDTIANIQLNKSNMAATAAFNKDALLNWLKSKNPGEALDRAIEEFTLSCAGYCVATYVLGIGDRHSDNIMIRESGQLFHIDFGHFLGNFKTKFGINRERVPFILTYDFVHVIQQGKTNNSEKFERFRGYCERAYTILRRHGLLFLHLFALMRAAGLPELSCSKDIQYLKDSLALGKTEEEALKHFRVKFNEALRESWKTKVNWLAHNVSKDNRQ

MCF7 = assay: Antiproliferative activity against human MCF-7 cells assessed as reduction in cell viability after 48 hrs by MTT assay; format: functional, cell-based; conditions: MCF7, 48 h
HeLa = assay: Antiproliferative activity against human HeLa cells assessed as reduction in cell viability after 48 hrs by MTT assay; format: functional, cell-based
CNE-2 = assay: Antiproliferative activity against human CNE2 cells assessed as reduction in cell viability after 48 hrs by MTT assay; format: functional, cell-based; conditions: CNE-2, 48 h
MDA-MB-231 = assay: Antiproliferative activity against human MDA-MB-231 cells assessed as reduction in cell viability after 48 hrs by MTT assay; format: functional, cell-based; conditions: MDA-MB-231, 48 h
HepG2 = assay: Antiproliferative activity against human HepG2 cells assessed as reduction in cell viability after 48 hrs by MTT assay; format: functional, cell-based; conditions: HepG2, 48 h
[4] = Metabolic stability in rat liver microsomes assessed as compound remaining measured after 45 mins; format: ADME, Microsome; conditions: 0.75 h
HCT-116 [5] = assay: Inhibition of PI3K/mTOR signaling in human HCT116 cells assessed as reduction in […] phosphorylation at 10 uM measured by Western blot analysis; format: cell-based
HCT-116 [6] = assay: Inhibition of PI3K/mTOR signaling in human HCT116 cells assessed as reduction in AKT phosphorylation at 10 uM measured by Western blot analysis; format: cell-based
[7] = Metabolic stability in artificial gastrointestinal fluids

IC50 [1]: 10.2 µM
SMILES: NC(=O)C1CCCN(C(=O)c2ccc3nc(Nc4ccc(-c5nc(N6CCOCC6)nc(N6CCOCC6)n5)cc4)[nH]c3c2)C1 (centres undefined)

IC50 (HCT-116 [2]): 0.7 µM
IC50 [3]: 0.005 µM
IC50 (MCF7): 0.4 µM
IC50 [1]: 5.8 µM
IC50 (HeLa): 1.3 µM
IC50 (MDA-MB-231): 1.9 µM
IC50 (HepG2): 7.9 µM
SMILES: C[C@H](NC(=O)c1ccc2nc(Nc3ccc(-c4nc(N5CCOCC5)nc(N5CCOCC5)n4)cc3)[nH]c2c1)C(N)=O
IC50 (CNE-2): 12.3 µM

IC50 (HCT-116 [2]): 0.3 µM
IC50 [3]: 0.044 µM
IC50 (MCF7): 1.2 µM
Stabilty [4]: Unstable
IC50 [1]: 12.9 µM
IC50 (HeLa): 2.4 µM
IC50 (MDA-MB-231): 4.8 µM
IC50 (HepG2): 1.3 µM
SMILES: O=C(c1ccc2nc(Nc3ccc(-c4nc(N5CCOCC5)nc(N5CCOCC5)n4)cc3)[nH]c2c1)N1CCOCC1
inhibition (HCT-116 [5]): Active
inhibition (HCT-116 [6]): Active
IC50 (CNE-2): 6.9 µM
Stability [7]: Stable

IC50 [3]: 0.013 µM
IC50 [1]: 13.1 µM
SMILES: CN1CCN(C(=O)c2ccc3nc(Nc4ccc(-c5nc(N6CCOCC6)nc(N6CCOCC6)n5)cc4)[nH]c3c2)CC1

IC50 [1]: 11.9 µM
SMILES: CS(=O)(=O)N1CCN(C(=O)c2ccc3nc(Nc4ccc(-c5nc(N6CCOCC6)nc(N6CCOCC6)n5)cc4)[nH]c3c2)CC1

IC50 [3]: 0.0023 µM
IC50 [1]: 15.4 µM
SMILES: NC(=O)C1CCN(C(=O)c2ccc3nc(Nc4ccc(-c5nc(N6CCOCC6)nc(N6CCOCC6)n5)cc4)[nH]c3c2)CC1

Stabilty [4]: Stable
IC50 [1]: 11.8 µM
SMILES: NC(=O)[C@@H]1CCCN1C(=O)c1ccc2nc(Nc3ccc(-c4nc(N5CCOCC5)nc(N5CCOCC5)n4)cc3)[nH]c2c1
Stability [7]: Stable

IC50 (HCT-116 [2]): 0.9 µM
IC50 [3]: 0.0051 µM
IC50 (MCF7): 0.3 µM
Stabilty [4]: Stable
IC50 [1]: 5.6 µM
IC50 (HeLa): 7.7 µM
IC50 (MDA-MB-231): 5.5 µM
IC50 (HepG2): 23 µM
SMILES: NC(=O)[C@H]1CCCN1C(=O)c1ccc2nc(Nc3ccc(-c4nc(N5CCOCC5)nc(N5CCOCC5)n4)cc3)[nH]c2c1
inhibition (HCT-116 [5]): Active
inhibition (HCT-116 [6]): Active
IC50 (CNE-2): 7.3 µM
Stability [7]: Stable

IC50 [1]: 8.5 µM
SMILES: NC(=O)C1CCCCN1C(=O)c1ccc2nc(Nc3ccc(-c4nc(N5CCOCC5)nc(N5CCOCC5)n4)cc3)[nH]c2c1 (centres undefined)

IC50 [1]: 5.7 µM
SMILES: NC(=O)C1(N)CCN(C(=O)c2ccc3nc(Nc4ccc(-c5nc(N6CCOCC6)nc(N6CCOCC6)n5)cc4)[nH]c3c2)CC1

IC50 [1]: 14.6 µM
SMILES: CN(C)C1CCN(C(=O)c2ccc3nc(Nc4ccc(-c5nc(N6CCOCC6)nc(N6CCOCC6)n5)cc4)[nH]c3c2)CC1
